Among the data in patent US11596639B2, “Substituted indole Mcl-1 inhibitors” (Vanderbilt University, priority 2016, dated 2023) are GI50 and Ki values, retold here.

Assay [1] relates to H929 human cancer cell lines. Description: Cellular viability / proliferation (Cell TiterGlo, 72 h). The class given is cell-based. The conditions noted are these: Homo sapiens, NCI-H929, 72 h, read-out: GI50 on cellular proliferation of H929 human cancer cell lines, H929 cells, 72 h, Cell TiterGlo, 10% FBS. The essentials:
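H929 cells plated at 1,000/well in 10% FBS medium received a 2-fold serial compound dilution (top 50 μM, DMSO <1%) 24 h later. After 72 h, viability was read by CellTiter-Glo luminescence. IC50 came from a four-parameter fit.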

The target in the next assay is Mcl-1 (Homo sapiens (Human), UniProt Q07820). Description: TR-FRET binding assay, FITC-Bak peptide and MBP-tagged Mcl-1. The conditions noted are these: read-out: Ki for Inhibition of Mcl-1 by TR-FRET assay. As for the experimental part: Compounds are diluted in DMSO in a 16-point, semilog serial dilution scheme. […] The plate was mixed and incubated for 3 hours at room temperature. […] TR-FRET signal is plotted and IC50 and Ki values are calculated in the same manner as the fluorescence polarization anisotropy based competition assays.
Chain of Mcl-1 (Q07820 172-327): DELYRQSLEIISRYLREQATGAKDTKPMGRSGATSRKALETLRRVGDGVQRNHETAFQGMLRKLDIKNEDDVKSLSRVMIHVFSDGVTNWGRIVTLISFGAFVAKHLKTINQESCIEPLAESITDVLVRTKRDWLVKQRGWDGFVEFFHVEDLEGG
In general terms: TR-FRET usually uses a lanthanide donor and a delayed reading to cut background.

What is called Ki is the dissociation constant of the complex between target and ligand, obtained from inhibition or displacement.

For the compound `Cc1cc(OCCCc2c3n(c4c(-c5c(C)nn(C)c5C)c(Cl)ccc24)[C@H](C)CN(c2cn(CC(=O)N4CCN(C)CC4)c4ccc(-c5ncn(C)n5)cc24)C3=O)cc(C)c1Cl` [Example 546, (R)-7-Chloro-10-(3-(4-chloro-3,5-dimethylphenoxy)propyl)-4-methyl-2-(5-(1-methyl-1H-1,2,4-triazol-3-yl)-1-(2-(4-methylpiperazin-1-yl)-2-oxoethyl)-1H-indol-3-yl)-6-(1,3,5-trimethyl-1H-pyrazol-4-yl)-3,4-dihydropyrazino[1,2-a]indol-1(2H)-one], the GI50 in assay [1] turned out to be 420 nM. On Mcl-1, the Ki was determined as 0.38 nM.
The matching figures for `COc1ccc(N2C[C@@H](C)n3c(c(CCCOc4cc(C)c(Cl)c(C)c4)c4ccc(Cl)c(-c5c(C)ncnc5C)c43)C2=O)c2c1cc(C(=O)O)n2Cc1ccc(C)cn1` [Example 478, (R)-7-(7-Chloro-10-(3-(4-chloro-3,5-dimethylphenoxy)propyl)-6-(4,6-dimethylpyrimidin-5-yl)-4-methyl-1-oxo-3,4-dihydropyrazino[1,2-a]indol-2(1H)-yl)-4-methoxy-1-((5-methylpyridin-2-yl)methyl)-1H-indole-2-carboxylic acid]: 560 nM and 0.24 nM.
The matching figures for `Cc1cc(OCCCc2c3n(c4c(-c5c(C)nn(C)c5C)c(Cl)ccc24)[C@H](C)CN(c2cn(CCN4CCCC4)c4ccc(-c5ncn(C)n5)cc24)C3=O)cc(C)c1Cl` [Example 586, (R)-7-Chloro-10-(3-(4-chloro-3,5-dimethylphenoxy)propyl)-4-methyl-2-(5-(1-methyl-1H-1,2,4-triazol-3-yl)-1-(2-(pyrrolidin-1-yl)ethyl)-1H-indol-3-yl)-6-(1,3,5-trimethyl-1H-pyrazol-4-yl)-3,4-dihydropyrazino[1,2-a]indol-1(2H)-one]: 400 nM and 2.6 nM.
As for `Cc1cc(OCCCc2c3n(c4c(-c5c(C)ncnc5C)c(Cl)ccc24)[C@H](C)CN(c2cn(C)c4ccc(C(=O)O)nc24)C3=O)cc(C)c1Cl` [Example 651, (R)-3-(7-chloro-10-(3-(4-chloro-3,5-dimethylphenoxy)propyl)-6-(4,6-dimethylpyrimidin-5-yl)-4-methyl-1-oxo-3,4-dihydropyrazino[1,2-a]indol-2(1H)-yl)-1-methyl-1H-pyrrolo[3,2-b]pyridine-5-carboxylic acid], the GI50 in assay [1] is 290 nM. Further, at Mcl-1, the inhibitory constant (Ki) is below 0.2 nM.
As for `COCCOc1cc(N2C[C@@H](C)n3c(c(CCCOc4cc(C)c(Cl)c(C)c4)c4ccc(Cl)c(-c5c(C)nn(C)c5C)c43)C2=O)c2c(c1)c(C(=O)O)cn2Cc1ccccn1` [Example 609, (R)-7-(7-chloro-10-(3-(4-chloro-3,5-dimethylphenoxy)propyl)-4-methyl-1-oxo-6-(1,3,5-trimethyl-1H-pyrazol-4-yl)-3,4-dihydropyrazino[1,2-a]indol-2(1H)-yl)-5-(2-methoxyethoxy)-1-(pyridin-2-ylmethyl)-1H-indole-3-carboxylic acid], in assay [1], the GI50 turned out to be 340 nM. Also, the Ki at Mcl-1 was determined as 0.26 nM.
The matching figures for `Cc1cc(OCCCc2c3n(c4c(-c5c(C)nn(C)c5C)c(Cl)ccc24)[C@H](C)CN(c2cn(CC(N)=O)c4ccc(C(=O)O)cc24)C3=O)cc(C)c1Cl` [Example 620, (R)-1-(2-amino-2-oxoethyl)-3-(7-chloro-10-(3-(4-chloro-3,5-dimethylphenoxy)propyl)-4-methyl-1-oxo-6-(1,3,5-trimethyl-1H-pyrazol-4-yl)-3,4-dihydropyrazino[1,2-a]indol-2(1H)-yl)-1H-indole-5-carboxylic acid]: 7600 nM and below 0.2 nM.
The matching figures for `COCCOCc1cccn2nc(-c3ccc4c(c3)c(N3C[C@@H](C)n5c(c(CCCOc6cc(C)c(Cl)c(C)c6)c6ccc(Cl)c(-c7c(C)nn(C)c7C)c65)C3=O)cn4C)nc12` [Example 699, (R)-7-Chloro-10-(3-(4-chloro-3,5-dimethylphenoxy)propyl)-2-(5-(8-((2-methoxyethoxy)methyl)-[1,2,4]triazolo[1,5-a]pyridin-2-yl)-1-methyl-1H-indol-3-yl)-4-methyl-6-(1,3,5-trimethyl-1H-pyrazol-4-yl)-3,4-dihydropyrazino[1,2-a]indol-1(2H)-one]: 350 nM and 1.2 nM.
For the compound `Cc1cc(OCCCc2c3n(c4c(-c5c(C)nn(C)c5C)c(Cl)ccc24)[C@H](C)CN(c2cn(CC(=O)N(C)C)c4ccc(-c5ncn(Cc6ccccn6)n5)cc24)C3=O)cc(C)c1Cl` [Example 638, (R)-2-(3-(7-Chloro-10-(3-(4-chloro-3,5-dimethylphenoxy)propyl)-4-methyl-1-oxo-6-(1,3,5-trimethyl-1H-pyrazol-4-yl)-3,4-dihydropyrazino[1,2-a]indol-2(1H)-yl)-5-(1-(pyridin-2-ylmethyl)-1H-1,2,4-triazol-3-yl)-1H-indol-1-yl)-N,N-dimethylacetamide], in assay [1], the GI50 came to 600 nM. Moreover, the inhibitory constant (Ki) on Mcl-1 was determined as 1.7 nM.
The matching figures for `CC(=O)N1CCN(C(=O)c2cc(N3C[C@@H](C)n4c(c(CCCOc5cc(C)c(Cl)c(C)c5)c5ccc(Cl)c(-c6c(C)nn(C)c6C)c54)C3=O)c3c(c2)cc(C(=O)O)n3C)CC1` [Example 629, (R)-5-(4-acetylpiperazine-1-carbonyl)-7-(7-chloro-10-(3-(4-chloro-3,5-dimethylphenoxy)propyl)-4-methyl-1-oxo-6-(1,3,5-trimethyl-1H-pyrazol-4-yl)-3,4-dihydropyrazino[1,2-a]indol-2(1H)-yl)-1-methyl-1H-indole-2-carboxylic acid]: 560 nM and below 0.2 nM.
Taken in the same sequence, the figures for `Cc1cc(OCCCc2c3n(c4c(-c5c(C)nn(C)c5C)c(Cl)ccc24)[C@H](C)CN(c2cc(OC4CC[N+](C)(C)C4)cc4cc(C(=O)O)n(C)c24)C3=O)cc(C)c1Cl` (stereo partly drawn) [Example 513, 3-((2-Carboxy-7-((R)-7-chloro-10-(3-(4-chloro-3,5-dimethylphenoxy)propyl)-4-methyl-1-oxo-6-(1,3,5-trimethyl-1H-pyrazol-4-yl)-3,4-dihydropyrazino[1,2-a]indol-2(1H)-yl)-1-methyl-1H-indol-5-yl)oxy)-1,1-dimethylpyrrolidin-1-ium 2,2,2-trifluoroacetate] were 5300 nM and below 0.2 nM.
The matching figures for `COc1ccnc(Cn2c(C(=O)O)cc3c(OC)ccc(N4C[C@@H](C)n5c(c(CCCOc6cc(C)c(Cl)c(C)c6)c6ccc(Cl)c(-c7c(C)ncnc7C)c65)C4=O)c32)c1` [Example 476, (R)-7-(7-Chloro-10-(3-(4-chloro-3,5-dimethylphenoxy)propyl)-6-(4,6-dimethylpyrimidin-5-yl)-4-methyl-1-oxo-3,4-dihydropyrazino[1,2-a]indol-2(1H)-yl)-4-methoxy-1-((4-methoxypyridin-2-yl)methyl)-1H-indole-2-carboxylic acid]: below 200 nM and below 0.2 nM.
Turning to `Cc1cc(N2C[C@@H](C)n3c(c(CCCOc4cc(C)c(Cl)c(C)c4)c4ccc(Cl)c(-c5c(C)nn(C)c5C)c43)C2=O)c2c(c1)cc(C(=O)O)n2Cc1cccc(N2CCN(C)CC2)n1` [Example 516, (R)-7-(7-Chloro-10-(3-(4-chloro-3,5-dimethylphenoxy)propyl)-4-methyl-1-oxo-6-(1,3,5-trimethyl-1H-pyrazol-4-yl)-3,4-dihydropyrazino[1,2-a]indol-2(1H)-yl)-5-methyl-1-((6-(4-methylpiperazin-1-yl)pyridin-2-yl)methyl)-1H-indole-2-carboxylic acid], the GI50 in assay [1] was 330 nM. For the same compound, the Ki at Mcl-1 is below 0.2 nM.
Taken in the same sequence, the figures for `Cc1cc(OCCCc2c3n(c4c(-c5c(C)nn(C)c5C)c(Cl)ccc24)[C@H](C)CN(c2cc(N(C)Cc4ccccn4)cc4c(C(=O)O)cn(C)c24)C3=O)cc(C)c1Cl` [Example 564, (R)-7-(7-chloro-10-(3-(4-chloro-3,5-dimethylphenoxy)propyl)-4-methyl-1-oxo-6-(1,3,5-trimethyl-1H-pyrazol-4-yl)-3,4-dihydropyrazino[1,2-a]indol-2(1H)-yl)-1-methyl-5-(methyl(pyridin-2-ylmethyl)amino)-1H-indole-3-carboxylic acid] were 590 nM and 0.46 nM.
Taken in the same sequence, the figures for `COCCn1c(C(=O)O)cc2cc(C)cc(N3C[C@@H](C)n4c(c(CCCOc5cc(C)c(Cl)c(C)c5)c5ccc(Cl)c(-c6c(C)n[nH]c6C)c54)C3=O)c21` [Example 718, (R)-7-(7-chloro-10-(3-(4-chloro-3,5-dimethylphenoxy)propyl)-6-(3,5-dimethyl-1H-pyrazol-4-yl)-4-methyl-1-oxo-3,4-dihydropyrazino[1,2-a]indol-2(1H)-yl)-1-(2-methoxyethyl)-5-methyl-1H-indole-2-carboxylic acid] were 410 nM and below 0.2 nM.
The matching figures for `Cc1cc(OCCCc2c3n(c4c(-c5c(C)nn(C)c5C)c(Cl)ccc24)[C@H](C)CN(c2cn(C[C@@H]4CCCN4C)c4ccc(C(=O)O)cc24)C3=O)cc(C)c1Cl` [Example 690, 3-((R)-7-chloro-10-(3-(4-chloro-3,5-dimethylphenoxy)propyl)-4-methyl-1-oxo-6-(1,3,5-trimethyl-1H-pyrazol-4-yl)-3,4-dihydropyrazino[1,2-a]indol-2(1H)-yl)-1-(((S)-1-methylpyrrolidin-2-yl)methyl)-1H-indole-5-carboxylic acid]: 330 nM and 0.26 nM.
Regarding `COCCn1cc(N2C[C@@H](C)n3c(c(CCCOc4cc(C)c(Cl)c(C)c4)c4ccc(Cl)c(-c5c(C)nn(C)c5C)c43)C2=O)c2cc(-c3ncn(CCN4CCOCC4)n3)ccc21` [Example 615, (R)-7-Chloro-10-(3-(4-chloro-3,5-dimethylphenoxy)propyl)-2-(1-(2-methoxyethyl)-5-(1-(2-morpholinoethyl)-1H-1,2,4-triazol-3-yl)-1H-indol-3-yl)-4-methyl-6-(1,3,5-trimethyl-1H-pyrazol-4-yl)-3,4-dihydropyrazino[1,2-a]indol-1(2H)-one], in assay [1], the GI50 came out at 370 nM. Moreover, the Ki on Mcl-1 came out at 9.6 nM.
